According to patent US20250205191A1, “R(-)-MDMA COMPOSITIONS AND METHODS OF TREATMENT” (EmpathBio, Inc., priority 2023, published 2025):

Assays:
healthy volunteers [1] = test: Phase 1 Self-Compassion Scale (SCS); format: in vivo, human
Source text: Self-compassion is defined as being open to and moved by one's own suffering, experiencing feelings of caring and kindness toward oneself, taking an understanding, non-judgmental attitude toward one's inadequacies and failures, and recognizing that one's own experience is part of the common human experience (Neff, K. D., 2003. The development and validation of a scale to measure self-compassion. Self and Identity, 2, 223-250). The Self-Compassion Scale is an assessment tool designed to measure three core components of self-compassion: self-kindness, common humanity and mindfulness. (SCS; Neff, K. D., 2011. Self-compassion: Stop beating yourself up and leave insecurity behind. New York, NY: Harper Collins) The total self-compassion score is the total of the scores of the sub-items: self-kindness, self-judgement (reversed), common humanity, isolation (reversed), mindfulness and over-identification (reversed).

[2] = system: rat embryonic cortical neurons; test: In vitro rat cortical neurite outgrowth; format: cell-based; conditions: 3 days, vs vehicle control
Method: The experiment included a 0.1% sterile water vehicle negative control condition and a 250 nM donepezil positive control condition, and the number of neurites per neuron, total neurite length per neuron and branchpoints per neuron from n=12 wells per treatment were compared to the vehicle control condition.

[3] = Phase 1 clinical study, urine pharmacokinetics (urinalysis); format: in vivo, human
oxytocin = test: Phase 1 hormone response, oxytocin; format: in vivo, human; conditions: any cohort vs placebo group
male C57BL/6J mice [4] = test: Mouse extinction of fear learning assay; format: in vivo; conditions: vs vehicle
Method: Extinction of fear learning in rodents is a useful assay to understand if compounds have the potential to enhance learning processes that may be involved in recovery from SAD and other stress and anxiety related disorders, due to its resemblance to exposure-based therapy in humans. […] Freezing behavior, an indicator of the fear response, was measured in the presence of the CS during the extinction training session (Day 1) and the day after (Day 2, Extinction Testing, in the absence of test article). Locomotor activity was measured during the initial 2-minute habituation period, prior to the presentation of the CS, on Days 1 and 2.

human 5-HT2B receptor = molecular target: T1, human 5-HT2B receptor (Homo sapiens, UniProt P41595); test: 5-HT2B agonism, inositol monophosphate accumulation (HTRF), CHO-K1 recombinant cells; format: cell-based
T1 construct: expressed in transfected cells; host or cells: CHO-K1
T1 sequence (P41595 whole entry): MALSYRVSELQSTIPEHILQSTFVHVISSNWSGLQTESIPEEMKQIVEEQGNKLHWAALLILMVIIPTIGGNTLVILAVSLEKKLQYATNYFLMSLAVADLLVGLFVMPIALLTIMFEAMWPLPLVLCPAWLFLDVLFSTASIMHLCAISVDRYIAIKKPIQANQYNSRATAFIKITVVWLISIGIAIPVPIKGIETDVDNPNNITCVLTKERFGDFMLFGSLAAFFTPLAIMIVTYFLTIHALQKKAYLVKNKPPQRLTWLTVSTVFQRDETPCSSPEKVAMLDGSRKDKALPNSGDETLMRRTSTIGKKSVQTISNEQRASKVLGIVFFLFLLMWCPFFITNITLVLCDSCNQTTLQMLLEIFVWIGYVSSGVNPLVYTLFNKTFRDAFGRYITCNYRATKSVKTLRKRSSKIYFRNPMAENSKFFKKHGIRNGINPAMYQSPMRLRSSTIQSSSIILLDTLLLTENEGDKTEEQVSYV

healthy volunteers [5] = test: Phase 1 exploratory Visual Analog Scale (VAS); format: in vivo, human; conditions: vs placebo; dose-dependent pattern
Source text: VAS measure changes in subjective experience that are typical in healthy human volunteer studies. These include experiences such as Happy, Open, Loving, Close to Others, Sociable, and Lonely.

healthy volunteers [6] = test: Phase 1 Challenging Experiences Questionnaire (CEQ); format: in vivo, human; conditions: 6.5 hours post dosing
Source text: Seven Challenging Experiences Questionnaire (CEQ) factors (grief, fear, death, insanity, isolation, physical distress, and paranoia) provide a phenomenological profile of challenging aspects of experiences with R(−)-MDMA.

healthy volunteers [7] = test: Phase 1 clinical study, safety and tolerability; format: in vivo, human
Source text: The primary endpoints assessed the safety, tolerability, pharmacokinetics (PK), and exploratory pharmacodynamic (PD) observations. Treatment-related adverse events (AEs) were in line with expectations (e.g., nausea at 29.2%, headache at 16.7%) and generally dose dependent.

healthy volunteers [8] = test: Phase 1 Multifaceted Empathy Test (MET); format: in vivo, human; conditions: 75-225 mg
Source text: The Multifaceted Empathy Test (MET) measures cognitive empathy (CE), explicit emotional empathy (EEE) and implicit emotional empathy (IEE).

male C57BL/6J mice [9] = test: Mouse head twitch response (HTR); format: in vivo; conditions: 3 mg/kg IP, 30 min, vs vehicle control group
Method: Mouse Head Twitch (HTR) is a side-to-side rotational head movement in rodents that is widely employed as a behavioral measure of 5-HT2A receptor activation (Halberstadt and Geyer 2013). […] Animals with head mounted magnets were dosed intraperitoneally and immediately tested for HTR for 30 min using an automated magnetometer detection system (Halberstadt and Geyer 2013).

healthy volunteers [10] = test: Phase 1 5-Dimensions-Altered States of Consciousness (5D-ASC); format: in vivo, human; conditions: 75-225 mg oral
Source text: The 5D-ASC measures the acute drug effects using 5 primary dimensions and 11 lower-order scales to assess alterations in mood, perception and experience of self in relation to environment and thought disorder. The 5 dimensions include oceanic boundlessness, anxious ego dissolution, visionary restructuralization, auditory alterations, and reduction of vigilance.
A notable result illustrated by the ASC data was the reporting ratio of feelings of Oceanic Boundlessness (OB) relative to Dread of Ego Dissolution (DED). The ratio can be a useful metric as they are inversely correlated with psychedelic-mediated antidepressant efficacy (OB positively correlated, DED negatively correlated). […] The OB-DED ratio was consistent with the 11-Dimensional Altered States of Consciousness (11D-ASC).

[11] = urine analyte after EMP-01 125 mg, Day 9
[12] = urine analyte after single oral 75 mg R(−)-MDMA, Day 1
[13] = urine analyte after single oral 125 mg R(−)-MDMA, Day 1
[14] = urine analyte after single oral 175 mg R(−)-MDMA, Day 1
[15] = urine analyte after single oral 225 mg R(−)-MDMA, Day 1
[16] = single oral 75-225 mg, healthy participants

Q: Which results are given for CN[C@H](C)Cc1ccc2c(c1)OCO2 [R(−)-MDMA, R(−)-3,4-methylenedioxymethamphetamine]?
A: SCS self-kindness score, mean (healthy volunteers [1]; 225 mg group, 1 week of follow-up): 4.1; SCS self-kindness score, mean at baseline (healthy volunteers [1]; 225 mg group, before dosing): 3.9; self-compassion (self-kindness) scores (healthy volunteers [1]; higher doses, 1 week of follow-up): significantly increased; number of neurites per neuron ([2]; 0.0001 μM): modest yet significant increases; branchpoints per neuron ([2]; 10 μM): modest yet significant increases; number of neurites per neuron ([2]; 10 μM): modest yet significant increases; total neurite length per neuron ([2]; 10 μM): modest yet significant increases; detection in urine ([3]; 0-4 hours postdose): detected in urine in all participants by the first collection interval; mean cumulative amount excreted in urine (CAe), trend ([3]; across dose groups): dose-related increase; mean renal clearance (CLr), trend ([3]; across dose groups): approximately similar across all dose groups; mean urine concentration over collection intervals ([3]; all intervals to 30 hours): highest in the 12-24 hour collection interval; Ae12-24, amount excreted at the 12-24 hour collection interval [3, 11]: 18.5655 (12.7511) mg; CAe, cumulative amount of drug excreted [3, 11]: 40.5567 (15.5851) mg; CFe, cumulative fraction of drug excreted [3, 11]: 32.4453 (12.4681) %; CLr, renal clearance rate [3, 11]: 5.2324 (1.8093) L/h; Fe12-24, fraction of drug excreted at the 12-24 hour collection interval [3, 11]: 14.8524 (10.2009) %; Ae12-24, amount excreted at the 12-24 hour collection interval [3, 12]: 7.6917 (3.1509) mg; CAe, cumulative amount of drug excreted [3, 12]: 20.0733 (9.7605) mg; CFe, cumulative fraction of drug excreted [3, 12]: 26.7643 (13.0140) %; CLr, renal clearance rate [3, 12]: 4.9966 (1.2255) L/h; Fe12-24, fraction of drug excreted at the 12-24 hour collection interval [3, 12]: 10.2556 (4.2012) %; Ae12-24, amount excreted at the 12-24 hour collection interval [3, 13]: 14.5039 (5.6733) mg; CAe, cumulative amount of drug excreted [3, 13]: 28.2063 (7.8540) mg; CFe, cumulative fraction of drug excreted [3, 13]: 22.5650 (6.2832) %; CLr, renal clearance rate [3, 13]: 3.9900 (1.0288) L/h; Fe12-24, fraction of drug excreted at the 12-24 hour collection interval [3, 13]: 11.6031 (4.5387) %; Ae12-24, amount excreted at the 12-24 hour collection interval [3, 14]: 20.3702 (13.5536) mg; CAe, cumulative amount of drug excreted [3, 14]: 59.6271 (34.2201) mg; CFe, cumulative fraction of drug excreted [3, 14]: 34.0726 (19.5543) %; CLr, renal clearance rate [3, 14]: 5.9108 (2.5782) L/h; Fe12-24, fraction of drug excreted at the 12-24 hour collection interval [3, 14]: 11.6401 (7.7449) %; Ae12-24, amount excreted at the 12-24 hour collection interval [3, 15]: 36.8357 (16.8611) mg; CAe, cumulative amount of drug excreted [3, 15]: 76.0465 (15.1167) mg; CFe, cumulative fraction of drug excreted [3, 15]: 33.7985 (6.7186) %; CLr, renal clearance rate [3, 15]: 5.5411 (1.6424) L/h; Fe12-24, fraction of drug excreted at the 12-24 hour collection interval [3, 15]: 16.3714 (7.4938) %; oxytocin production (oxytocin): did not appear to have an effect; freezing behavior (male C57BL/6J mice [4]; 10 mg/kg IP once): significantly reduced freezing behavior on Day 2 only; locomotor activity (male C57BL/6J mice [4]; 10 mg/kg IP once): significantly increased activity on Day 1 only; freezing behavior (male C57BL/6J mice [4]; 17 mg/kg IP once): significant reductions of freezing behavior on Days 1 and 2; locomotor activity (male C57BL/6J mice [4]; 17 mg/kg IP once): significantly increased activity on Day 1 only; freezing behavior (male C57BL/6J mice [4]; 30 mg/kg IP once): significant reductions of freezing behavior on Days 1 and 2; locomotor activity (activity counts) (male C57BL/6J mice [4]; 30 mg/kg IP once): significant increases in activity counts on Days 1 and 2; agonism in words (human 5-HT2B receptor; 5-HT2B receptors): high potency full agonism; EC50 (human 5-HT2B receptor; 5-HT2B, CHO-K1, IP accumulation): 53 nM; Efficacy (% of a-Me-5-HT response) (human 5-HT2B receptor; 5-HT2B, relative to α-Me-5-HT at its EC100): 91.8%; VAS scores for positive affect (happy, loving, openness, less loneliness) (healthy volunteers [5]): increased VAS scores compared to placebo; CEQ changes from baseline (healthy volunteers [6]): clear dose-dependent response with statistical significance at higher doses; bruxism (healthy volunteers [7]; highest dose (225 mg)): observed in a single subject; peak body temperatures (healthy volunteers [7]; single oral 75-225 mg): within the normal range; serious or severe AEs (healthy volunteers [7]; single oral 75-225 mg): no serious or severe AEs were observed; study discontinuations (healthy volunteers [7]; single oral 75-225 mg): no study discontinuations; treatment-related adverse event: headache (healthy volunteers [7]; [16]): 16.7%; treatment-related adverse event: nausea (healthy volunteers [7]; [16]): 29.2%; blood pressure and heart rate (healthy volunteers [7]; single oral 75-225 mg, limited dose dependency): Non-clinically significant increases; MET LSmean scores in CE negative emotions, changes from baseline (healthy volunteers [8]): dose-dependent manner; head twitch response (HTR) (male C57BL/6J mice [9]): significantly increased; 5D-ASC sub-components and total score (healthy volunteers [10]): dose-dependent increase in all measured sub-components and in the total score
